The text below walks through data of patent EP4458977A1, “SELF-ASSEMBLING PEPTIDE AMPHIPHILES AS RETROVIRAL TRANSDUCTION ENHANCERS” (Max-Planck-Gesellschaft zur Förderung der Wissenschaften …, priority 2023, dated 2024).

“Also recorded” adds a separate entry of the source. Where a SMILES comes first, the peptide text is derived from it. Where no end group is shown, it is not given here. The star is where a group is joined. Palmitoyl = CCCCCCCCCCCCCCCC(=O)*

Data set [1] can be described thus: Thioflavin T (ThT) fluorescence assay. It is filed as physicochemical. Also noted: key to ThT: + = ThT active; - = no ThT fluorescence observed. The conditions noted are these: for ThT: ThT fluorescence, 1 mg/mL, PBS; for N-fold ThT-fluorescence: relative to PBS control. The procedure: Transmission electron microscopy (TEM) measurements, Thioflavin (ThT), zeta-potential measurements for fibril characterization were prepared and conducted according to prior art procedures. […] Fibrils were defined as distinct, if no visible structures could be identified in fluorescence and brightfield microscopy. A peptide fibril was considered as ThT-active if the fluorescence intensity was at least twice as strong compared to the control (PBS containing 10% DMSO).

The nature of data set [2]: Fluorescence microscopy of ThT-stained fibrils (µm-sized aggregates). Type of data set: physicochemical. The conditions noted are these: for fluorescent, µm-sized aggregates (ThT staining): 1 mg/mL stained with 50 µM ThT. The method, boiled down: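 Fibrils (1 mg mL^-1) mixed 1:9 with 50 µM ThT, giving 0.1 mg mL^-1 stained fibrils on glass. Imaged under 10x air objective with excitation 480/40 nm and emission 527/30 nm. Fibrils called distinct when no visible structures appeared in fluorescence or brightfield.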

Data set [3] concerns HeLa cells. Briefly: Confocal laser scanning microscopy and degradation study with PA1-3 and HeLa cells. It is filed as cell-based. The conditions noted are these: for association with cellular membranes: HeLa cells, 30 min. The procedure:
4 µL of the preformed peptide fibrils (1 mg mL^-1) were diluted with 4 µL Proteostat (Enzo Life Science, 1 µL stock in 999 µL PBS) and incubated for 10 min and further diluted with medium to receive a final peptide concentration of 20 µg mL^-1. The nucleus of the HeLa cells was stained with Hoechst 33342 (NucBlue™, Thermo Fisher Scientific). The peptide solution was transferred to the HeLa cells and incubated for 30 min at 37°C before washing three times with PBS. […] For the evaluation of aggregate degradation, the samples were further incubated at 37°C for 3 d and analyzed without any additional washing step. […] The number of aggregates were determined by accumulating the number of aggregates larger than 10 µm^2 in an area of 581.25 × 581.25 µm, repeated in three technical triplicates.

The subject of the next data set is CD4+ T cells. Briefly: γ-retroviral transduction assay (GALV-RV, GFP+ cells). It is filed as cell-based, Human. The procedure: (§1) γ-Retroviral transduction Assay with Jurkat and CD4+ T cells: The effect of peptide fibrils on retroviral transduction of Jurkat cells was analyzed 3 days post transduction by determining the percentage of GFP + cells by flow cytometry. The assay was conducted according prior art procedures.
Human CD4+ T cells were isolated from a Buffy coat using RosetteSep™ Human CD4+ Enrichment Cocktail ([…] Technologies) according to manufacturer's protocol. Isolated T cells were activated using Dynabeads™ Human T-Activator CD3/CD28 (GibcoTM) according to manufacturer's protocol in presence of 10 ng mL^-1 IL-2 (Miltenyi Biotec) for three days. After 3 days the magnetic Dynabeads were removed using a magnet and T cells were cultured in presence of 9 ng mL^-1 IL-7 (Miltenyi Biotec) and 10 ng mL^-1 IL-15 (Miltenyi Biotec). After 1 day 5×10^5 T cells were transduced with GALV-γ-RV in absence and presence of PA1, PA2, EF-C (0.26, 1.3 and 6.5 µM) and Vectofusin®-1 (10 µg mL^-1; Miltenyi Biotec), or RetroNectin (20 µg mL^-1; Takara Bio). […] After 3 days GFP+ T cells were analyzed by flow cytometry. Viability was determined using LIVE/DEAD™ Fixable Aqua Dead Cell Stain Kit (ThermoFisher Scientific) according to manufacturer's protocol.

The nature of data set [4]: ATR-FT-IR determination of β-sheet content. It is filed as physicochemical. To be noted: for β-sheet content / %: peak integration of parallel β-sheet at 1630 cm-1, 2nd derivative of ATR-IR spectra; for β-sheet amount: 1 mg/mL in PBS lyophilized, integral at 1630 cm^-1 relative to 1650-1700 cm^-1. The method in brief:
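Lyophilized fibril samples measured by diamond ATR-FT-IR, 2 cm^-1 resolution, 64 scans averaged. β-sheet content taken from the second-derivative spectrum as the 1630 cm-1 peak integral relative to the 1650-1700 cm-1 integral.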

Data set [5] is described as follows: Zeta-potential measurement (dynamic light scattering). It is filed as physicochemical. The conditions noted are these: for Zeta Potential / mV: 1 mg/mL, PBS; for Count Rate / kcps: derived count rate of scattered light during zeta-potential measurements. The procedure: Zeta-potential: 60 µL of the peptides (1 mg mL-1) were diluted in 600 µL, 1 mM KCI solution and placed in a disposable folded capillary cuvette. All zeta-potential measurements were conducted by dynamic light scattering technology (Zetasizer, Malvern Instruments) and in triplicates for each sample. The derived count rate of the zeta potential measurement was used as information on the light scattering intensity and turbidity of the sample as a further indicator for microscopic aggregation.

The test system of the next data set is Jurkat cells. Briefly: γ-retroviral transduction assay (GALV-RV, GFP+ cells). Type of data set: cell-based. The method, then:
as §1

Data set [6] can be described thus: TEM of peptide assemblies (fibril formation / assembly). The conditions noted are these: for TEM morphology (in words): 1 mg/mL in PBS; for Assembly without hydrophob residue: corresponding peptide without hydrophobic moiety; for Assembly: peptide amphiphile; for Fibril Formation: via TEM, linkage chemistry exchange. Also noted: key to Fibril Formation: "1" means fibril formation observed; "0" means no fibrils observed. It is filed as physicochemical. The method, boiled down:
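Peptides predissolved in DMSO at 10 mg/mL (stock), diluted in PBS to 650 µM or 1 mg/mL final and incubated 1 d at rt (20–25 °C) to form fibrils. Other concentrations obtained by diluting preformed fibrils; assemblies imaged by TEM.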

The test system of another data set is HIV-1. The conditions noted are these: for enhancement of HIV-1 infection / transduction (in words): 6.5 µM, 1.3 µM, 0.26 µM; for Infectivity enhancing N fold at 1.3 µM: relative to virus only.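 For all read-outs here: TZM-bl reporter cells exposed to HIV-1 with peptide fibrils, infection read out as β-galactosidase luminescence, compared with virus alone.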
Data set [7] is described as follows: Zeta-potential measurement (dynamic light scattering). Type of data set: physicochemical.
Data set [8] deals with HeLa cells. Briefly: Confocal laser scanning microscopy and degradation study with PA library and HeLa cells. It is filed as cell-based. To be noted: for association with cellular membranes: 2 µg added to 20.000 HeLa cells, 30 min; for degradability (in words) / Degradability / % (rel. to initial particles > 10 µm^2): HeLa cells; for degradability (in words): 3 days; for Degradability / % (rel. to initial particles > 10 µm^2): 3 d relative to 30 min; for aggregate number decreases / degraded in presence of HeLa cells within 3 days: d3 relative to d0. The method, boiled down:
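HeLa cells (20,000/well) got Proteostat-stained PAs (2 µg peptide per 20.000 cells) with Hoechst nuclear stain, 30 min at 37°C, PBS-washed, then held 3 d at 37°C unwashed. Confocal imaging at d0 and d3 counted aggregates >10 µm^2 in 1008 × 1008 µm, three technical replicates. Degradation taken as d3/d0 aggregate number.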

Experimental for HIV-1: HIV-1 Infection Assay with TZM-bl cells: The effect of peptide fibrils on HIV-1 infection was studied via a luminescence assay for β-galactosidase, which was reported by TZM-bl cells upon infection. The HIV-1 infection assay was conducted in three technical replicates and repeated in three independent experiments unless stated otherwise.

Regarding `CCCCCCCCCCCCCCCC(=O)N[C@@H](Cc1ccccc1)C(=O)N[C@@H](CCC(N)=O)C(=O)N[C@@H](Cc1ccccc1)C(=O)N[C@@H](CCCCN)C(=O)N[C@@H](Cc1ccccc1)C(=O)N[C@@H](CCCCN)C(=O)N[C@@H](CS)C(N)=O` [PA2, C16-FQFKFKC-NH2] (Palmitoyl-FQFKFKC-NH2), in [1], the ThT result is “+”. The “formation of µm-sized aggregates in aqueous medium / PBS (in words)” value in data set [2] is “formation of µm-sized aggregates; also recorded: microscopic clusters of fibrils were formed”. The “degraded over the course of 3 days in the presence of HeLa cells” value in the data set with HeLa cells [3] (4 µg peptide added to 40,000 cells) amounted to 53%. For the same molecule, the “association with cellular membranes” value in the data set with HeLa cells [3] is listed as “association with cellular membranes”. Further, the “transduction enhancement (in words)” value with CD4+ T cells was “activity in the range of commercially available gold-standard enhancers RetroNectin and Vectofusin-1”. Also, the “β-sheet content / %” value in data set [4] was 59%. Also, in data set [5], the “zeta-potential (in words)” value was “positive zeta-potential” and the “Zeta Potential / mV” value was “+19.2 ± 3.4 mV”. Further, the “transduction enhancement (in words)” value in the data set on Jurkat cells was “strong transduction enhancement similar to EF-C”.
With `CCCCCCCCCCCCCCCC(=O)N[C@H](C(=O)N[C@H](C(=O)N[C@H](C(=O)N[C@@H](C)C(=O)N[C@@H](C)C(=O)N[C@@H](C)C(=O)N[C@@H](CCC(=O)O)C(=O)N[C@@H](CCC(=O)O)C(=O)N[C@@H](CCC(=O)O)C(N)=O)C(C)C)C(C)C)C(C)C` [PA3] (Palmitoyl-VVVAAAEEE-NH2), the ThT result in data set [1] is “+”. Moreover, the “TEM morphology (in words)” value in data set [6] is listed as “distinct fibrils”. Further, the “formation of µm-sized aggregates in aqueous medium / PBS (in words)” value in data set [2] is reported as “does not form µm-sized aggregates in PBS; also recorded: did not bundle or adopt µm-sized aggregates in PBS”. Besides, in the data set with HeLa cells [3], the “association with cellular membranes” value is reported as “did not associate with cells”. Besides, the “β-sheet content / %” value in [4] was 61%. In addition, in data set [5], the “zeta-potential (in words)” value is recorded as “negative zeta-potential” and the “Zeta Potential / mV” value was -29.8 ± 2.7 mV. Moreover, the “enhancement of HIV-1 infection / transduction (in words)” value in the data set on HIV-1 is “no transduction enhancement”.
Turning to “C16-ester-SVVVAAAKKK-NH2 (S(Palmitoyl)VVVAAAKKK-NH2; N-terminus assumed; SMILES CCCCCCCCCCCCCCCC(=O)OC[C@H](N)C(=O)N[C@H](C(=O)N[C@H](C(=O)N[C@H](C(=O)N[C@@H](C)C(=O)N[C@@H](C)C(=O)N[C@@H](C)C(=O)N[C@@H](CCCCN)C(=O)N[C@@H](CCCCN)C(=O)N[C@@H](CCCCN)C(N)=O)C(C)C)C(C)C)C(C)C) [Pat1]”, the “N-fold ThT-fluorescence” value in data set [1] came out at 277.1. Besides, in data set [6], the “TEM morphology (in words)” value was “fibrillar morphologies”, the “Assembly without hydrophob residue” value is reported as “No”, the Assembly entry was “Yes” and the “Fibril Formation” value turned out to be 1. In data set [2], the “fluorescent, µm-sized aggregates (ThT staining)” value is “fluorescent, µm-sized aggregates”. Moreover, the “Zeta-Potential / mV” value in [7] was determined as 20.5 mV. In the data set with HeLa cells [8], the “association with cellular membranes” value is on record as “association with cellular membranes”; the “degradability (in words)” value is “degraded well, but not as efficient as PA1 or Pat3; also recorded: degradable PA”; the “Degradability / % (rel. to initial particles > 10 µm^2)” value came out at 31%; the “aggregate number decreases / degraded in presence of HeLa cells within 3 days” value is 30%. This molecule also showed a β-sheet amount in data set [4] of 43%. For the same molecule, the “Count Rate / kcps” value in [5] is given as 3217.3 kcps. Also, in the data set with HIV-1, the “enhances infectivity at 1.3 µM concentration, times more efficient compared to virus only infection” value is given as 17 times and the “Infectivity enhancing N fold at 1.3 µM” value was 17±5 N fold.
For “C16-thioester-CVVVAAAKKK-NH2 (C(Palmitoyl)VVVAAAKKK-NH2; N-terminus assumed; SMILES CCCCCCCCCCCCCCCC(=O)SC[C@H](N)C(=O)N[C@H](C(=O)N[C@H](C(=O)N[C@H](C(=O)N[C@@H](C)C(=O)N[C@@H](C)C(=O)N[C@@H](C)C(=O)N[C@@H](CCCCN)C(=O)N[C@@H](CCCCN)C(=O)N[C@@H](CCCCN)C(N)=O)C(C)C)C(C)C)C(C)C) [Pat3]”, the “N-fold ThT-fluorescence” value in data set [1] is given as 166.1. For the same molecule, in data set [6], the “TEM morphology (in words)” value is reported as “fibrillar morphologies”, the “Assembly without hydrophob residue” value is “No”, the Assembly result is reported as “Yes” and the “Fibril Formation” value was 1. In addition, the “fluorescent, µm-sized aggregates (ThT staining)” value in data set [2] is “fluorescent, µm-sized aggregates”. Moreover, the “Zeta-Potential / mV” value in data set [7] came to 18.3 mV. In the data set on HeLa cells [8], the “association with cellular membranes” value was “association with cellular membranes”, the “degradability (in words)” value was “degradable PA”, the “Degradability / % (rel. to initial particles > 10 µm^2)” value is 87% and the “aggregate number decreases / degraded in presence of HeLa cells within 3 days” value is given as 87%. Moreover, in data set [4], the β-sheet amount is 50%. Further, in data set [5], the “Count Rate / kcps” value came out at 2058.5 kcps. Besides, in the data set on HIV-1, the “enhances infectivity at 1.3 µM concentration, times more efficient compared to virus only infection” value was 11 times; the “enhancement of HIV-1 infection / transduction (in words)” value was “potent enhancers of HIV-1 infection”; the “Infectivity enhancing N fold at 1.3 µM” value is 11±4 N fold.
